Measured values published in publication PMC9356275, “A quantitative high-throughput screen identifies compounds that lower expression of the SCA2-and ALS-associated gene ATXN2” (The Journal of Biological Chemistry, 2022).
Values joined by “and” are separate entries in the source; they are usually repeats but may differ in a detail not shown here. Equal entries are not always repeated. Structures can show the parent of a compound that is named as a salt. Where two headings read alike, the source gives them in different places.

How the values were obtained:
[1] = tested on: ATXN2-luc; experiment: NCATS qHTS (LOPAC pilot, primary and confirmation): ATXN2-luc in S2 cells, 1536-well, Steady-Glo; type: cell-based, human; conditions: for Curve Class: LOPAC library (1,280 compounds) screening optimization, signed sub-classes (-1.1, -2.2, -3 ...)
Experimental: We next performed a pilot screen assay to optimize the 1536-well qHTS using S2 cells. […] Cytotoxicity was determined using a multiplexed viability assay (CellTiter-Fluor, a fluorescence-based viability assay using Gly-Phe-7-amino-4-trifluoromethylcoumarin substrate).
CellTiter-Fluor was used to determine compound effect on cell viability, and Steady-Glo was used to measure luciferase in a multiplexed assay.
The primary assay was conducted at the NCATS NIH Chemical Genomics Center laboratory. About 4 μl of S2 cell suspension in phenol red–free DMEM was dispensed into wells of 1536-well assay plates. […] Next, SteadyGlo luciferase substrate detection reagent (3 μl) was added to each well and incubated for an additional 5 min at room temperature. Luminescence was then measured on the ViewLux imager equipped with clear filters using a 2 s exposure. All screening operations were performed on a fully integrated robotic system (Kalypsys) containing one RX-130 and two RX-90 anthropomorphic robotic arms (Stäubli). Vehicle-only plates, with DMSO being pin-transferred to columns 5 to 48, were inserted uniformly at the beginning and the end of each library in order to monitor and record any shifts in assay performance.

[2] = tested on: ATXN2-luc; experiment: MSSR pilot screen: ATXN2-luc luciferase assay (Bright-Glo) in H2 cells, single 10 μM dose; type: cell-based, human; conditions: H2 cells, single dose (title: 10 μM compound), overnight
[3] = Homo sapiens, LOPAC library screening optimization, logarithm of AC50 (negative values), read-out: Log AC50 (converted)
[4] = Homo sapiens, LOPAC library screening optimization, read-out: AC50
[5] = LOPAC library screening optimization, curve-fit parameter
[6] = LOPAC library screening optimization, logarithm of AC50 (negative values)
[7] = LOPAC library screening optimization, read-out: AC50

CC(=O)O[C@H]1C[C@H](O[C@H]2[C@@H](O)C[C@H](O[C@H]3[C@@H](O)C[C@H](OC4CC[C@@]5(C)C(CC[C@@H]6[C@@H]5CC[C@]5(C)[C@@H](C7=CC(=O)OC7)[C@@H](O)C[C@]65O)C4)O[C@@H]3C)O[C@@H]2C)O[C@H](C)[C@H]1O[C@@H]1O[C@H](CO)[C@@H](O)[C@H](O)[C@H]1O (stereo partly shown) [Lanatoside B]
AC50 [1, 3]: 1.26 µM | AC50 [1, 4]: 1.26 µM | Efficacy [1, 5]: -78.0523 | Inf Activity [1, 5]: -90.3741

N=C1C=CC(=C(c2ccc(N)cc2)c2ccc(N)cc2)C=C1 [PARAROSANILINE PAMOATE]
SD from mean (ATXN2-luc, Z-score) [2]: -2.740 SD

C=C[C@H]1C[N@@]2CC[C@H]1C[C@H]2[C@H](O)c1ccnc2ccc(OC)cc12 [Quinine sulfate]
AC50 [1, 3]: 35.5 µM | AC50 [1, 4]: 35.5 µM | Efficacy [1, 5]: -70.489 | Inf Activity [1, 5]: -66.665

CC(C)=CCC[C@]1(C)C=Cc2c(O)c3c(c(CC=C(C)C)c2O1)O[C@]12C(=C[C@@H]4C[C@H]1C(C)(C)O[C@@]2(C/C=C(/C)C(=O)O)C4=O)C3=O [GAMBOGIC ACID]
SD from mean (ATXN2-luc, Z-score) [2]: -4.841 SD

CNCC[C@H](Oc1ccc(C(F)(F)F)cc1)c1ccccc1.Cl [MLS002153300-01]
Curve Class [1]: -2.2 | Efficacy [1, 5]: -72.8775 | Hill Coef [1, 5]: 2.1211 | Inf Activity [1, 5]: -81.66 | Zero Activity [1, 5]: -8.7824 | Log AC50 [1, 6]: -4.45 | AC50 [1, 7]: 35.5 µM | Max Resp ([1]; LOPAC library screening optimization, response at highest tested concentration): -62.2424

COc1cc(C[C@H](C)N)c(OC)cc1Br.Cl
AC50 [1, 3]: 28.2 µM | AC50 [1, 4]: 28.2 µM | Efficacy [1, 5]: -52.627 | Inf Activity [1, 5]: -55.207

O=C1C=C2C(=CCOC2O)O1 (stereo not shown) [PATULIN]
SD from mean (ATXN2-luc, Z-score) [2]: -3.651 SD

O=C1C=CC(=O)c2ccccc21 [4-NAPHTHOQUINONE]
SD from mean (ATXN2-luc, Z-score) [2]: -3.613 SD

Cl.Cl.O=C1c2c(O)ccc(O)c2C(=O)c2c(NCCNCCO)ccc(NCCNCCO)c21 [MITOXANTHRONE HYDROCHLORIDE]
SD from mean (ATXN2-luc, Z-score) [2]: -4.333 SD

CO[C@H]1C=C[C@@]23c4cc5c(cc4CN(C[C@@H]2O)[C@H]3C1)OCO5 [CRINAMINE]
SD from mean (ATXN2-luc, Z-score) [2]: -3.651 SD

Cc1c2ccncc2c(C)c2c1[nH]c1ccccc12 [Ellipticine]
SD from mean (ATXN2-luc, Z-score) [2]: -3.485 SD

CC(C)NC[C@H](O)COc1cccc2ccccc12 [(S)-Propranolol hydrochloride]
AC50 [1, 3]: 17.8 µM | AC50 [1, 4]: 17.8 µM | Curve Class [1]: -2.2 | Log AC50 [1, 6]: -4.5 | AC50 [1, 7]: 31.6 µM

O[C@H]1[C@H]2c3cc4c(cc3CN3CCC(=C[C@@H]1O)[C@H]23)OCO4 [Lycorine hydrochloride]
SD from mean (ATXN2-luc, Z-score) [2]: -2.968 SD

O=C(Cc1ccc(Cl)c(Cl)c1)N1CCCCC1CN1CCCC1 (stereo not shown) [BRL 52537 hydrochloride]
AC50 [1, 3]: 35.5 µM | AC50 [1, 4]: 35.5 µM | Efficacy [1, 5]: -82.8908 | Inf Activity [1, 5]: -85.8462

CC(C)/N=c1\cc2n(-c3ccc(Cl)cc3)c3ccccc3nc-2cc1Nc1ccc(Cl)cc1 [CLOFAZIMINE]
SD from mean (ATXN2-luc, Z-score) [2]: -2.792 SD

C[CH2][Hg][S]c1ccccc1C(=O)[O-].[Na+] [THIMEROSAL]
SD from mean (ATXN2-luc, Z-score) [2]: -5.645 SD

Br.COc1cc(CC(C)N)c(OC)cc1Br (stereo not shown)
AC50 [1, 3]: 15.8 µM | AC50 [1, 4]: 15.8 µM | Curve Class [1]: -2.4 | Efficacy [1, 5]: -57.1187 | Inf Activity [1, 5]: -63.2991

Nc1ncnc2c1c(I)cn2[C@@H]1C[C@H](N)[C@@H](O)[C@H]1O [A-134974 dihydrochloride hydrate]
AC50 [1, 3]: 10 µM | AC50 [1, 4]: 10 µM | Curve Class [1]: -2.1 | Log AC50 [1, 6]: -4.9 | AC50 [1, 7]: 12.6 µM

COc1ccc(C[C@H]2NC[C@H](O)[C@H]2OC(C)=O)cc1 [Anisomycin]
SD from mean (ATXN2-luc, Z-score) [2]: -4.015 SD

Clc1ccc2c(c1)C(N1CCNCC1)=Nc1ccccc1O2 [Amoxapine]
AC50 [1, 3]: 11.2 µM | AC50 [1, 4]: 11.2 µM | Curve Class [1]: -2.2 | Efficacy [1, 5]: -60.2873 | Inf Activity [1, 5]: -56.594

COc1cccc2c1C(=O)c1c(O)c3c(c(O)c1C2=O)C[C@@](O)(C(C)=O)C[C@@H]3O[C@H]1C[C@H](N)[C@H](O)[C@H](C)O1 [Daunorubicin hydrochloride]
SD from mean (ATXN2-luc, Z-score) [2]: -4.155 SD

CC1CNCCN1[S+](=O)([O-])c1cccc2cnccc12 (stereo not shown)
AC50 [1, 3]: 22.4 µM | AC50 [1, 4]: 22.4 µM

CCN(CC)CCCC(C)Nc1c2ccc(Cl)cc2nc2ccc(OC)cc12 (stereo not shown) [Quinacrine dihydrochloride dihydrate]
SD from mean (ATXN2-luc, Z-score) [2]: -3.270 SD

O=C1c2c(O)ccc(O)c2C(=O)c2c(NCCNCCO)ccc(NCCNCCO)c21 [Mitoxantrone dihydrochloride]
SD from mean (ATXN2-luc, Z-score) [2]: -3.666 SD

CC(=O)[C@]1(O)Cc2c(O)c3c(c(O)c2[C@@H](O[C@H]2C[C@H](N)[C@H](O)[C@H](C)O2)C1)C(=O)c1ccccc1C3=O [IDARUBICIN]
SD from mean (ATXN2-luc, Z-score) [2]: -2.719 SD

CC[C@@]1(O)C[C@H](O[C@H]2C[C@H](N(C)C)[C@H](O)[C@H](C)O2)c2c(cc3c(c2O)C(=O)c2c(O)cccc2C3=O)[C@H]1C(=O)OC [AKLAVINE HYDROCHLORIDE]
SD from mean (ATXN2-luc, Z-score) [2]: -3.741 SD

CC(C)NCC(O)COc1cccc2ccccc12 (racemic) [(±)-Propranolol hydrochloride]
AC50 [1, 3]: 14.1 µM | AC50 [1, 4]: 14.1 µM | Curve Class [1]: -2.2 | Log AC50 [1, 6]: -4.6 | AC50 [1, 7]: 25.1 µM

CC(=O)[C@]1(O)Cc2c(O)c3c(c(O)c2[C@@H](O[C@H]2C[C@H](N)[C@H](O)[C@H](C)O2)C1)C(=O)c1ccccc1C3=O [IDARUBICIN HCl]
SD from mean (ATXN2-luc, Z-score) [2]: -2.944 SD

C[C@@H]1O[C@@H](O[C@H]2C[C@@H](O)[C@]3(CO)[C@H]4[C@H](O)C[C@]5(C)[C@@H]([C@H]6COC(=O)C6)CC[C@]5(O)[C@@H]4CC[C@]3(O)C2)[C@H](O)[C@H](O)[C@H]1O [dihydroouabain]
Hill Coef [1, 5]: 3.0654 and 2.7202 and 1.8851 and 1.6604

COc1cc(C[C@@H](C)N)c(OC)cc1Br.Cl
AC50 [1, 3]: 39.8 µM | AC50 [1, 4]: 39.8 µM | Efficacy [1, 5]: -71.0454 | Inf Activity [1, 5]: -73.0357

CNCCCN1c2ccccc2CCc2ccccc21 [Desipramine hydrochloride]
AC50 [1, 3]: 12.6 µM | AC50 [1, 4]: 12.6 µM | Curve Class [1]: -2.2 | Log AC50 [1, 6]: -4.85 | AC50 [1, 7]: 14.1 µM

COC(=O)C[C@](O)(CCCC(C)(C)O)C(=O)O[C@@H]1C(OC)=C[C@]23CCCN2CCc2cc4c(cc2[C@H]13)OCO4 [HOMOHARRINGTONINE]
SD from mean (ATXN2-luc, Z-score) [2]: -3.117 SD

CCCCCCc1ccc(O)cc1O.Nc1c2ccccc2nc2ccccc12 [ACRISORCIN]
SD from mean (ATXN2-luc, Z-score) [2]: -3.600 SD

COc1ccc(C[C@H](N)C(=O)N[C@H]2[C@@H](O)[C@H](n3cnc4c(N(C)C)ncnc43)O[C@@H]2CO)cc1 [PUROMYCIN HYDROCHLORIDE]
SD from mean (ATXN2-luc, Z-score) [2]: -3.716 SD

COc1ccc(C[C@H](N)C(=O)N[C@H]2[C@@H](O)[C@H](n3cnc4c(N(C)C)ncnc43)O[C@@H]2CO)cc1 [Puromycin dihydrochloride]
SD from mean (ATXN2-luc, Z-score) [2]: -4.723 SD

O=C(Nc1ccc([N+](=O)[O-])cc1Cl)c1cc(Cl)ccc1O [Niclosamide]
SD from mean (ATXN2-luc, Z-score) [2]: -4.393 SD

CC(C)[N+](C)(CCC(C(N)=O)(c1ccccc1)c1ccccc1)C(C)C [ISOPROPAMIDE IODIDE]
SD from mean (ATXN2-luc, Z-score) [2]: -4.073 SD

COc1cc(/C=C/C(=O)N2CCC=CC2=O)cc(OC)c1OC [Piperlongumine]
SD from mean (ATXN2-luc, Z-score) [2]: -2.973 SD

CC[C@@]1(O)C[C@H](O)c2c(cc3c(c2O)C(=O)c2c(O)ccc(O)c2C3=O)[C@H]1C(=O)OC [RUTILANTINONE]
SD from mean (ATXN2-luc, Z-score) [2]: -2.722 SD

COC(=O)[C@]1(C)CC[C@]2(C)CC[C@]3(C)C4=CC=C5C(=CC(=O)C(O)=C5C)[C@]4(C)CC[C@@]3(C)[C@@H]2C1 [PRISTIMERIN]
SD from mean (ATXN2-luc, Z-score) [2]: -3.883 SD

N=c1ccn2c(n1)O[C@H]1[C@H](O)[C@@H](CO)O[C@H]12 [ANCITABINE HYDROCHLORIDE]
SD from mean (ATXN2-luc, Z-score) [2]: -3.031 SD

COc1cc([C@@H]2c3cc4c(cc3[C@@H](O[C@@H]3O[C@@H]5CO[C@@H](c6cccs6)O[C@H]5[C@H](O)[C@H]3O)[C@H]3COC(=O)[C@H]23)OCO4)cc(OC)c1O [TENIPOSIDE]
SD from mean (ATXN2-luc, Z-score) [2]: -2.832 SD

C[C@H]1CC[C@]2(NC1)O[C@H]1C[C@H]3[C@@H]4CC[C@H]5C[C@@H](O[C@@H]6O[C@H](CO)[C@H](O[C@@H]7O[C@H](CO)[C@@H](O)[C@H](O[C@@H]8OC[C@@H](O)[C@H](O)[C@H]8O)[C@H]7O[C@@H]7O[C@H](CO)[C@@H](O)[C@H](O)[C@H]7O)[C@H](O)[C@H]6O)CC[C@]5(C)[C@H]4CC[C@]3(C)[C@H]1[C@@H]2C [TOMATINE]
SD from mean (ATXN2-luc, Z-score) [2]: -4.999 SD

Nc1c2ccccc2nc2ccccc12 [AMINACRINE]
SD from mean (ATXN2-luc, Z-score) [2]: -4.103 SD

C[n+]1c2cc(N)ccc2cc2ccc(N)cc21.[Cl-] [ACRIFLAVINIUM HYDROCHLORIDE]
SD from mean (ATXN2-luc, Z-score) [2]: -4.148 SD

Nc1ccn([C@@H]2O[C@H](CO)[C@@H](O)[C@@H]2O)c(=O)n1 [CYTARABINE]
SD from mean (ATXN2-luc, Z-score) [2]: -3.681 SD

CC(=O)O[C@@H]1C[C@@]2(C)[C@H](c3ccoc3)C[C@H]3O[C@]32[C@]2(C)C(=O)C(O)=C3C(C)(C)C(=O)C=C[C@]3(C)[C@@H]12 [ANTHOTHECOL]
SD from mean (ATXN2-luc, Z-score) [2]: -3.020 SD
